Results reported in US7160907B2, “Pleuromutilin derivatives” (SmithKline Beecham P.L.C., priority 2000, dated 2007).

How the values were obtained:
Format in all cases: cell-based
[1] = test system: Staphylococcus aureus Oxford; experiment: conventional MIC assay, Staphylococcus aureus Oxford; settings: against Staphylococcus aureus Oxford
Protocol: (§1) Compounds of the present invention were assessed for anti-bacterial activity in a conventional MIC assay against a range of pathogenic organisms.

[2] = test system: Streptococcus pneumoniae 1629; experiment: conventional MIC assay, Streptococcus pneumoniae 1629; settings: against Streptococcus pneumoniae 1629
Protocol: as §1

[3] = test system: Moraxella catarrhalis 1502; experiment: conventional MIC assay, Moraxella catarrhalis 1502; settings: against Moraxella catarrhalis 1502
Protocol: as §1

[4] = test system: Haemophilus influenzae Q1; experiment: conventional MIC assay, Haemophilus influenzae Q1; settings: against Haemophilus influenzae Q1
Protocol: as §1

Measured: MIC

C=C[C@]1(C)C[C@@H](OC(=O)NC(=O)OCCN2CCN(S(N)(=O)=O)CC2)[C@]2(C)[C@H](C)CC[C@]3(CCC(=O)[C@H]32)[C@@H](C)[C@@H]1O [Example 121]
≤ 4 µg/mL: all assays above

C=C[C@]1(C)C[C@@H](OC(=O)NC(=O)OCc2ncc(C(N)=O)c(N)n2)[C@]2(C)[C@H](C)CC[C@]3(CCC(=O)[C@H]32)[C@@H](C)[C@@H]1O [Example 116, Mutilin 14-[N-(4-amino-5-carboxamidopyrimidin-2-ylmethoxycarbonyl)]carbamate]
≤ 4 µg/mL: all assays above

C=C[C@]1(C)C[C@@H](OC(=O)NC(=O)O[C@H]2CN[C@H](C#N)C2)[C@]2(C)[C@H](C)CC[C@]3(CCC(=O)[C@H]32)[C@@H](C)[C@@H]1O [Example 126, Mutilin 14-[N-(5-(S)-cyanopyrrolidin-3-(R)-yloxycarbonyl)]carbamate]
≤ 4 µg/mL: all assays above

C=C[C@]1(C)C[C@@H](OC(=O)NC(=O)O[C@@H]2CCN(CC#N)C2)[C@]2(C)[C@H](C)CC[C@]3(CCC(=O)[C@H]32)[C@@H](C)[C@@H]1O [Example 123, Mutilin 14-[N-(1-cyanomethylpyrrolidin-3-(R)-yloxycarbonyl)]carbamate]
≤ 4 µg/mL: all assays above

C=C[C@]1(C)C[C@@H](OC(=O)NC(=O)OCS(C)(=O)=O)[C@]2(C)[C@H](C)CC[C@]3(CCC(=O)[C@H]32)[C@@H](C)[C@@H]1O [Example 117, Mutilin 14-[N-(methylsulfonylmethoxycarbonyl)]carbamate]
≤ 4 µg/mL: all assays above

C=C[C@]1(C)C[C@@H](OC(=O)NC(=O)OCCN2CCN(C=O)CC2)[C@]2(C)[C@H](C)CC[C@]3(CCC(=O)[C@H]32)[C@@H](C)[C@@H]1O [Example 120, Mutilin 14-[N-(2-(4-formylpiperazin-1-yl)ethyloxycarbonyl)]carbamate]
≤ 4 µg/mL: all assays above

C=C[C@]1(C)C[C@@H](OC(=O)NC(=O)O[C@H]2COC[C@H]2OC(N)=O)[C@]2(C)[C@H](C)CC[C@]3(CCC(=O)[C@H]32)[C@@H](C)[C@@H]1O (racemic) [Example 118, Mutilin 14-[N-(cis-4-carbamoyloxytetrahydrofuran-3-yloxycarbonyl)]carbamate]
≤ 4 µg/mL: all assays above

C=C[C@]1(C)C[C@@H](OC(=O)NC(=O)OC2CN(CC#N)C2)[C@]2(C)[C@H](C)CC[C@]3(CCC(=O)[C@H]32)[C@@H](C)[C@@H]1O [Example 129, Mutilin 14-[N-(1-cyanomethylazetidin-3-yloxycarbonyl)]-carbamate]
≤ 4 µg/mL: all assays above

C=C[C@]1(C)C[C@@H](OC(=O)NC(=O)OC2CN(N)C2)[C@]2(C)[C@H](C)CC[C@]3(CCC(=O)[C@H]32)[C@@H](C)[C@@H]1O [Example 130, Mutilin 14-[N-(1-aminoazetidin-3-yloxycarbonyl)]-carbamate]
≤ 4 µg/mL: all assays above

C=C[C@]1(C)C[C@@H](OC(=O)NC(=O)O[C@@H]2CO[C@H]3[C@@H]2OC[C@@H]3N)[C@]2(C)[C@H](C)CC[C@]3(CCC(=O)[C@H]32)[C@@H](C)[C@@H]1O [Example 122, Mutilin 14-[N-(((3R,3aR,6S,6aR)-6-amino-hexahydrofuro[3,2-b]furan-3-yl)oxycarbonyl)]carbamate]
≤ 4 µg/mL: all assays above

C=C[C@]1(C)C[C@@H](OC(=O)NC(=O)OC2CN(CC(N)=O)C2)[C@]2(C)[C@H](C)CC[C@]3(CCC(=O)[C@H]32)[C@@H](C)[C@@H]1O [Example 128, Mutilin 14-[N-(1-carbamoylmethylazetidin-3-yloxycarbonyl)]-carbamate]
≤ 4 µg/mL: all assays above

C=C[C@]1(C)C[C@@H](OC(=O)NC(=O)OCc2cnc(N)c(C(N)=O)n2)[C@]2(C)[C@H](C)CC[C@]3(CCC(=O)[C@H]32)[C@@H](C)[C@@H]1O [Example 119]
≤ 4 µg/mL: all assays above
